Here are results for 3 compounds from patent publication US20240246942A1, “KINASE INHIBITORS FOR THE TREATMENT OF NEURODEGENERATIVE DISEASES” (priority 2020, published 2024).

What all share (assay): biochemical
Assay [1] addresses T1, panel of 374 wild-type kinases (Homo sapiens, UniProt Q9UF33).
T1 construct: purchased Reaction Biology Corporation
T1 sequence (Q9UF33 23-1036): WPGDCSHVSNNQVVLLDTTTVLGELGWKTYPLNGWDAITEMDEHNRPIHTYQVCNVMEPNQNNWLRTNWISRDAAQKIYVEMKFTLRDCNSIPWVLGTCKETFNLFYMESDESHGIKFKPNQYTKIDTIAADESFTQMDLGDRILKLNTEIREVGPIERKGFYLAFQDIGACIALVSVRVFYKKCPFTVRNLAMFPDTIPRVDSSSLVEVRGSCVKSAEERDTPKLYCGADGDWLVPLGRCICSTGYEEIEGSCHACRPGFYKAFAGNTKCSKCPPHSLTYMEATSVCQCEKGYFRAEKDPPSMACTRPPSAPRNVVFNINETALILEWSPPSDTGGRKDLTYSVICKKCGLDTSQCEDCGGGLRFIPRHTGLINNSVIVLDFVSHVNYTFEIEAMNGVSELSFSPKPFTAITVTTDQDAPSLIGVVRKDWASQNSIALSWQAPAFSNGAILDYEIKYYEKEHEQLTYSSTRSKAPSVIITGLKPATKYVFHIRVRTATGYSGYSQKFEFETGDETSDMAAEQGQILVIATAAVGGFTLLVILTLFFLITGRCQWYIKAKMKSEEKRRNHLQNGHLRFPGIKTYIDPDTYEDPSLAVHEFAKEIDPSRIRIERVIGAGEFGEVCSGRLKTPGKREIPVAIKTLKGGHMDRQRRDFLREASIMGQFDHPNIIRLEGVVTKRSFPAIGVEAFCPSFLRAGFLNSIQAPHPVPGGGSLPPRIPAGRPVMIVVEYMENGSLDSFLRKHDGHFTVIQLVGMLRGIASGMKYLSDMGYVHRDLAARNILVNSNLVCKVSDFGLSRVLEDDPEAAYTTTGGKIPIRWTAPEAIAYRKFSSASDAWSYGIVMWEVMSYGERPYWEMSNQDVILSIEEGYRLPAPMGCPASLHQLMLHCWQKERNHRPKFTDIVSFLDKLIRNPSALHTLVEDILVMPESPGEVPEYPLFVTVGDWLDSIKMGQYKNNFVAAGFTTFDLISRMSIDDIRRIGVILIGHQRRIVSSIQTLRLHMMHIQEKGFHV
The conditions noted are these: EPHA6, read-out: % Enzyme Activity (relative to DMSO controls).

Assay [2] addresses T2, panel of 374 wild-type kinases (Homo sapiens, UniProt Q16620).
T2 construct: purchased Reaction Biology Corporation
Particulars: read-out: % Enzyme Activity (relative to DMSO controls), kinase TRKB.

Assay [3] addresses T3, panel of 374 wild-type kinases (Homo sapiens, UniProt Q16566).
T3 construct: purchased Reaction Biology Corporation
Particulars: read-out: % Enzyme Activity (relative to DMSO controls), CAMK4.

Assay [4] addresses T4, panel of 374 wild-type kinases (Homo sapiens, UniProt Q9BYT3).
T4 construct: purchased Reaction Biology Corporation
The conditions noted are these: kinase STK33, read-out: % Enzyme Activity (relative to DMSO controls).

Assay [5] deals with T5, panel of 374 wild-type kinases (Homo sapiens, UniProt Q9HCP0).
T5 construct: purchased Reaction Biology Corporation
Particulars: read-out: % Enzyme Activity (relative to DMSO controls), CK1g1.

Assay [6] concerns the target T6, panel of 374 wild-type kinases (Homo sapiens, UniProt Q13554).
T6 construct: purchased Reaction Biology Corporation
Particulars: read-out: % Enzyme Activity (relative to DMSO controls), CAMK2b.

In assay [7] the target is T7, panel of 374 wild-type kinases (Homo sapiens, UniProt Q15569).
T7 construct: purchased Reaction Biology Corporation
The conditions noted are these: read-out: % Enzyme Activity (relative to DMSO controls), kinase TESK1.

For assay [8], the target named is T8, panel of 374 wild-type kinases (Homo sapiens, UniProt O14920).
T8 construct: purchased Reaction Biology Corporation
T8 sequence (O14920 1-756): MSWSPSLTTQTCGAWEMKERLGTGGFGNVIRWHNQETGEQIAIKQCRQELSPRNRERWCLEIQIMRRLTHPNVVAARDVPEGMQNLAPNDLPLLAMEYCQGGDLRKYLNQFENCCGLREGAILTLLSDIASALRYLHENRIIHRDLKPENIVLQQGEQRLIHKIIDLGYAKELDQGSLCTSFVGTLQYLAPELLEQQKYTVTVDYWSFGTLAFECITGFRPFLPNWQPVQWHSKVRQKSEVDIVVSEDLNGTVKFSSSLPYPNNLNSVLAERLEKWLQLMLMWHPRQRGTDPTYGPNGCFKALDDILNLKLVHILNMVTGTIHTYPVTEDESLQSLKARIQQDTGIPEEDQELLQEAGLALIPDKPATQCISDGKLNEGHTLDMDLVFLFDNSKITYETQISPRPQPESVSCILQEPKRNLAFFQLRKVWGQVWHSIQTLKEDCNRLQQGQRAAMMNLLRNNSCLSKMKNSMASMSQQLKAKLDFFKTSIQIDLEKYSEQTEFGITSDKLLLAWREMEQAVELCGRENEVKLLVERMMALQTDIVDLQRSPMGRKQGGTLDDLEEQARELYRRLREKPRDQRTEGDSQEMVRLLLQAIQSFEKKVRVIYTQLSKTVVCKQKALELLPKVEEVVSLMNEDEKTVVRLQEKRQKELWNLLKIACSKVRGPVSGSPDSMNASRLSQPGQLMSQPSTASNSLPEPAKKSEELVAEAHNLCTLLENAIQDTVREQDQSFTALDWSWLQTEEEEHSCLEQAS
The conditions noted are these: read-out: % Enzyme Activity (relative to DMSO controls), IKKb/IKBKB.

T7 sequence (Q15569 whole entry): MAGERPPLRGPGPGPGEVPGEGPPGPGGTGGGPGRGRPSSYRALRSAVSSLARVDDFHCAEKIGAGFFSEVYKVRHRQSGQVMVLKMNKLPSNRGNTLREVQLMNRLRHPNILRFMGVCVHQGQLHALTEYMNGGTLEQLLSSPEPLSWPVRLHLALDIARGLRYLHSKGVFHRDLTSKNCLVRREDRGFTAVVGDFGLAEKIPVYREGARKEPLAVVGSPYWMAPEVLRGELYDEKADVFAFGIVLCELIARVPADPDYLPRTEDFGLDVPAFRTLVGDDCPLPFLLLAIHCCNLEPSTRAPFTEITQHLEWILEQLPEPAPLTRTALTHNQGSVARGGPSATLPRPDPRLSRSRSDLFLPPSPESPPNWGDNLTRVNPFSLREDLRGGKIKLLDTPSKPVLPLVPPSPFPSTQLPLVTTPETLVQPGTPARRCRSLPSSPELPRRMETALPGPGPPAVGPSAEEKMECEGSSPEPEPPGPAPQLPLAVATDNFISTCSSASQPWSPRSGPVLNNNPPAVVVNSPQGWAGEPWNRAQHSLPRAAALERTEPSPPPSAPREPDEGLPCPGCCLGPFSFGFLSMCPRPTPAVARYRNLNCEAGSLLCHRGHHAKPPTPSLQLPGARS
T4 sequence (Q9BYT3 whole entry): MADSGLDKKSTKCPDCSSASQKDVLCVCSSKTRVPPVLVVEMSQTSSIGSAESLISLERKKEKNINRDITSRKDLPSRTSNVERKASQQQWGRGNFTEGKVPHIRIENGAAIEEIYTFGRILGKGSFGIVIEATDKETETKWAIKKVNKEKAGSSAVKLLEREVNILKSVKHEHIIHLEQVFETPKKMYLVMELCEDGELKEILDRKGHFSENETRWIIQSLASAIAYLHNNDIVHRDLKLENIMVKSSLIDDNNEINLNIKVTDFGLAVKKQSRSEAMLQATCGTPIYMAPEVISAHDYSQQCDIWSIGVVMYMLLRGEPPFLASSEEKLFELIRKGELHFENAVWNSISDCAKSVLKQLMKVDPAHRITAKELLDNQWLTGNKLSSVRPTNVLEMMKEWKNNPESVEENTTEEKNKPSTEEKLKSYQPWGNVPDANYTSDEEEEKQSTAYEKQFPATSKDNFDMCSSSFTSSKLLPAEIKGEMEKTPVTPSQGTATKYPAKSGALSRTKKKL
T3 sequence (Q16566 whole entry): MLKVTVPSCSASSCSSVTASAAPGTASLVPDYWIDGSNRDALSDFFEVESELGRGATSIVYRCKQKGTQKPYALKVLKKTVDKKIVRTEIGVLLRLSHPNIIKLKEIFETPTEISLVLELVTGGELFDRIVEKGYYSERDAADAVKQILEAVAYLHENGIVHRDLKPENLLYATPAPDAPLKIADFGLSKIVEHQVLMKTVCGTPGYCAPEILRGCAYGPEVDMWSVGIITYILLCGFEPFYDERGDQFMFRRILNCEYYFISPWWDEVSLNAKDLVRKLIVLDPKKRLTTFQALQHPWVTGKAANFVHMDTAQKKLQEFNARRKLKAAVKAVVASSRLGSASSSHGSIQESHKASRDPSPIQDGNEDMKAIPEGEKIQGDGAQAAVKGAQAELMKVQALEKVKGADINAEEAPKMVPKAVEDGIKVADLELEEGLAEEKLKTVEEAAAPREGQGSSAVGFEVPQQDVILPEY
T2 sequence (Q16620 32-822): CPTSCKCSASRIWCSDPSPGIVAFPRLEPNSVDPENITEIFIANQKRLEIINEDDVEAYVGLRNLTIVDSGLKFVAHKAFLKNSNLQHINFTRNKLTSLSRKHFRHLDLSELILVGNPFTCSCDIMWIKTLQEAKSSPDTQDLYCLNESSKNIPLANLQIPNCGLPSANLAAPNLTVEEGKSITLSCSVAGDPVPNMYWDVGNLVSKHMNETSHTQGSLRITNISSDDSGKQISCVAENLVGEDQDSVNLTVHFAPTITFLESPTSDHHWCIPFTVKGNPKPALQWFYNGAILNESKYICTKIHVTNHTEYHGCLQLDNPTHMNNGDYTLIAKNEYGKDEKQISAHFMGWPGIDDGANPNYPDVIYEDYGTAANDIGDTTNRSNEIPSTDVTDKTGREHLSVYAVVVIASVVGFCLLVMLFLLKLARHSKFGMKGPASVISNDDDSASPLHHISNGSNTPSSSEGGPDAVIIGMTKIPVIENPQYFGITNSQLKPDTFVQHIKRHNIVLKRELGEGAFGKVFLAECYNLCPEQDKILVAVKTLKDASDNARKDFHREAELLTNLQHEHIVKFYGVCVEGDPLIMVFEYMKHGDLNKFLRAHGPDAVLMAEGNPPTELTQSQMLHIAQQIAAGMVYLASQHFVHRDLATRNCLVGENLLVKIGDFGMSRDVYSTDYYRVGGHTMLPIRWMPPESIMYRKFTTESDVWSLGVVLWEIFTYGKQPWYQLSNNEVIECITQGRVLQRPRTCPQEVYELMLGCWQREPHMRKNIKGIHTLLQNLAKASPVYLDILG
T5 sequence (Q9HCP0 whole entry): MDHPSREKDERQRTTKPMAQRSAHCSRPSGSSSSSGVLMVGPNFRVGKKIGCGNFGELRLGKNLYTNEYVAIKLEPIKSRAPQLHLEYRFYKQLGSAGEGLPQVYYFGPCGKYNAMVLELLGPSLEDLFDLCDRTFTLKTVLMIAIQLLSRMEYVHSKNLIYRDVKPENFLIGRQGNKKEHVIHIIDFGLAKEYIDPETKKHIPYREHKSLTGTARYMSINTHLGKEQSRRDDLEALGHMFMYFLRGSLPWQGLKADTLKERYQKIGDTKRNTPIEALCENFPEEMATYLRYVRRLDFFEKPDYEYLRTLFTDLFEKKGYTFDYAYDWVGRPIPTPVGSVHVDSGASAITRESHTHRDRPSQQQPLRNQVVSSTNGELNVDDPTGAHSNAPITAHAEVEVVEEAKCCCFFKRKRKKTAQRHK
T6 sequence (Q13554 whole entry): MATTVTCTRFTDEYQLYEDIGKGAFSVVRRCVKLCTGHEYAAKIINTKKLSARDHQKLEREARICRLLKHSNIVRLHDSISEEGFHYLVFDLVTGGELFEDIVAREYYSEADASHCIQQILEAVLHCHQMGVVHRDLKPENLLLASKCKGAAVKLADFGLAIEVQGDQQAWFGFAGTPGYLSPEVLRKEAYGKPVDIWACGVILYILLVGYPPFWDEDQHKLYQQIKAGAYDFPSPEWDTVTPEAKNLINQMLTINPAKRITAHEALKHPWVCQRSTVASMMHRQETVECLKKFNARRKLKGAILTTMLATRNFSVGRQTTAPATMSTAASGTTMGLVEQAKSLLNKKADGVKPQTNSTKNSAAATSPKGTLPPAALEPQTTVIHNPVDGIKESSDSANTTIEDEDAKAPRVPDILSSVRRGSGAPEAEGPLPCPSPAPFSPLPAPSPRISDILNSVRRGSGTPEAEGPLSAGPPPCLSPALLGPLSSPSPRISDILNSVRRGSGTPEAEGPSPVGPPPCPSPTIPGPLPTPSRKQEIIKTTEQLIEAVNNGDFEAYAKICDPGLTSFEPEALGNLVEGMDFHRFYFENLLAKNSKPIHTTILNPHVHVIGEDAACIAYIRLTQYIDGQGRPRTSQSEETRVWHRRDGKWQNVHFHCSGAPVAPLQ

Regarding `O=C(Nc1cnn(-c2csc(C(=O)NC3COC3)c2)c1)Nc1ccccc1Cl` [Compound 17, 4-(4-(3-(2-chlorophenyl)ureido)-1H-pyrazol-1-yl)-N-(oxetan-3-yl)thiophene-2-carboxamide], the remaining activity at 5 µM in assay [1] turned out to be 99.5%; in assay [2] it was 84.2%; in assay [3] it was 114%; in assay [4], 99.3%; in assay [5], 99%; in assay [6], 105%. Moreover, the remaining activity at 5 µM in assay [7] was 101%; in assay [8], 95.6%.

For the compound `O=C(Nc1cnn(-c2csc(C(=O)NC3COC3)c2)c1)Nc1c(F)cccc1Cl` [Compound 25, 4-(4-(3-(2-chloro-6-fluorophenyl)ureido)-1H-pyrazol-1-yl)-N-(oxetan-3-yl)thiophene-2-carboxamide], the remaining activity at 5 µM in assay [1] turned out to be 95.7%; in assay [2], 91.5%; in assay [3], 98.7%; in assay [4], 81.8%; in assay [5], 102%; in assay [6], 99.1%. Moreover, the remaining activity at 5 µM in assay [7] is 91%; in assay [8], 94.7%.

With `Cc1sc(C(=O)NC2COC2)cc1-n1cc(NC(=O)Nc2c(F)cccc2Cl)cn1` [Compound 27, 4-(4-(3-(2-chloro-6-fluorophenyl)ureido)-1H-pyrazol-1-yl)-5-methyl-N-(oxetan-3-yl)thiophene-2-carboxamide], the remaining activity at 10 µM in assay [1] (10 uM) turned out to be 80.2%; in assay [2] (10 uM), 92.4%; in assay [3] (10 uM), 98.5%; in assay [4] (10 uM) it was 87.6%; in assay [5] (10 uM), 101%; in assay [6] (10 uM), 100%. For the same compound, the remaining activity at 10 µM in assay [7] (10 uM) is 88.7%; in assay [8] (10 uM), 86.8%.
